Columns and labels:
[1] = system: flaviviral surface E antigen (all VBFs tested); assay: Immunofluorescence staining of viral antigen in infected Vero cells; type: cell-based; details: 48 h p.i., 0, 40, 50 µM dasabuvir or efavirenz, 0, 75, 100 µM tipranavir
Protocol: The results obtained from antiviral assays were confirmed using a cell-based flavivirus immunostaining assay with a mouse monoclonal antibody that specifically recognizes the flavivirus group surface antigen, as described previously. Briefly, Vero cells seeded onto 96-well plates were treated with the test compound (0, 40, or 50 μM dasabuvir or efavirenz; 0, 75, or 100 μM tipranavir) and infected with the individual viruses at a multiplicity of infection of 0.1. After incubation at 37 °C for 48 h, the cell monolayers were fixed with cold acetone-methanol (1:1), blocked with 10% fetal bovine serum, and incubated with the flavivirus antibody (1:250; Sigma-Aldrich, Prague, Czech Republic). After washing, the cells were labeled with an anti-mouse goat secondary antibody conjugated with fluorescein isothiocyanate (FITC; 1:500) and counterstained with DAPI (4′,6-diamidino-2-phenylindole; 1 μg/mL) to allow visualization of the cell nuclei. The fluorescence signal was recorded with an Olympus IX71 epifluorescence microscope and processed by ImageJ software.

[2] = system: TBEV (Hypr); assay: microbe, parasite or virus in culture; type: cell-based, tick-borne encephalitis virus; details: for EC50: Tick-borne encephalitis virus, Vero
[3] = system: WNV (Eg101); assay: microbe, parasite or virus in culture; type: cell-based, West Nile virus; details: Vero cells; for EC50: pretreatment 24 h, 48 h incubation, plaque assay
[4] = system: UKF-NB-4 cells; assay: Cytotoxicity assay (Cell Counting Kit-8); type: cell-based, Human
Protocol: (§1) For detailed cytotoxicity studies, Vero, HBCA, and UKF-NB-4 cells were seeded onto 96-well plates at a density of 10,000 cells per well and incubated for 24 h at 37 °C before being used in the experiment to form a confluent monolayer. After the incubation, tested compounds were added to the cells at concentrations of 0, 3.125, 6.25, 12.5, 25, 50, 75, and 100 µM, and treated under the same regime as during antiviral testing; i.e., pretreatment for 24 h with culture medium containing appropriate drug concentrations, then the medium was exchanged with fresh compound-containing medium. […] The 50% cytotoxic concentration (CC50) values, representing the concentration of compound that reduced cell viability by 50%, were calculated using GraphPad Prism (version 7.04, GraphPad Software, San Diego, CA, USA) as a nonlinear regression (inhibitor vs. normalized response, variable slope).

[5] = Cytotoxicity assay (Cell Counting Kit-8); type: cell-based, Human; details: human, 72 h treatment, 0-100 µM
Protocol: as §1

[6] = system: HBCA cells; assay: Cytotoxicity assay (Cell Counting Kit-8); type: cell-based, Human
Protocol: as §1

[7] = system: ZIKV (Paraiba_01); assay: Anti-ZIKV activity in human neural cells, pretreatment assay, UKF-NB-4 cells; type: cell-based, Zika virus; details: 48 h
[8] = system: ZIKV (strain MR-766); assay: Anti-ZIKV activity in a simultaneous treatment assay, plaque assay, Vero cells; type: cell-based, Zika virus; details: 50 µM, 48 h
[9] = system: ZIKV (Paraiba_01); assay: Anti-ZIKV activity in human neural cells, pretreatment assay, HBCA cells; type: cell-based, Zika virus; details: 48 h
[10] = system: WNV (13-104); assay: microbe, parasite or virus in culture; type: cell-based, West Nile virus; details: Vero cells; for EC50: West Nile virus, pretreatment 24 h, 48 h incubation, plaque assay
[11] = system: ZIKV (Paraiba_01); assay: microbe, parasite or virus in culture; type: cell-based, Zika virus; details: Vero cells; for EC50: Zika virus, pretreatment 24 h, 48 h incubation, plaque assay
[12] = system: ZIKV (strain MR-766); assay: Inhibition of ZIKV-mediated cytopathic effect in a simultaneous treatment assay, Vero cells; details: 50 µM, 48 h
[13] = Cytotoxicity assay (Cell Counting Kit-8); type: cell-based; details: African green monkey; Vero cells, 72 h treatment, 0-100 µM
Protocol: as §1

[14] = system: ZIKV (MR-766); assay: microbe, parasite or virus in culture; type: cell-based, Zika virus; details: Vero cells; for EC50: Zika virus, pretreatment 24 h, 48 h incubation, plaque assay
[15] = system: ZIKV (strain MR-766); assay: Anti-ZIKV activity in a post-treatment assay, plaque assay, Vero cells; type: cell-based, Zika virus; details: 50 µM, 48 h
[16] = system: HCV genotype 1a replicon; design: method as in PMID 25534735; details: HCV subgenomic replicon; cited from earlier work
[17] = system: HCV genotype 1b replicon; design: method as in PMID 25534735; details: HCV subgenomic replicon; cited from earlier work
[18] = system: HIV; design: method as in PMID 21041916, PMID 18158073; details: H9 cells; read-out: EC90 (anti-HIV activity); cited from earlier work

## O=C1Nc2ccc(Cl)cc2[C@@](C#CC2CC2)(C(F)(F)F)O1 [Efavirenz, efavirenz]
[1]
  surface E antigen expression by all VBFs tested: dose-dependent inhibition
[2]
  Selectivity Index (SI) (CC50/EC50): 4.63
  EC50: 15.9 µM
[3]
  Selectivity Index (SI) (CC50/EC50): 3.35
[3]; West Nile virus, Vero
  EC50: 21.9 µM
[4]
  highest non-toxic (>90% viability of the treated cells) concentration: 12.5 µM
[5]; HBCA cells
  CC50 at 72 h: 16.7 µM
[5]; UKF-NB-4 cells
  CC50 at 72 h: 31.9 µM
[6]
  highest non-toxic (>90% viability of the treated cells) concentration: 3.125 µM
[7]; any concentration tested
  antiviral effect against ZIKV: No antiviral effect
[8]
  effect on ZIKV titer in the culture: reduced ZIKV titer
[9]; any concentration tested
  antiviral effect against ZIKV: No antiviral effect
[10]
  Selectivity Index (SI) (CC50/EC50): 4.50
  EC50: 16.3 µM
[11]
  Selectivity Index (SI) (CC50/EC50): 2.85
  EC50: 25.8 µM
[12]
  viability of the infected cells compared to uninfected controls (inhibition of ZIKV-mediated CPE): > 90%
[13]
  CC50 at 72 h: 73.6 µM
[14]
  Selectivity Index (SI) (CC50/EC50): 2.41
  EC50: 30.4 µM
[15]
  anti-ZIKV effect, drug applied 2 h post-infection: antiviral effect

## COc1c(-c2ccc3cc(NS(C)(=O)=O)ccc3c2)cc(-n2ccc(=O)[nH]c2=O)cc1C(C)(C)C [Dasabuvir, dasabuvir]
[1]
  surface E antigen expression by all VBFs tested: dose-dependent inhibition
[2]
  Selectivity Index (SI) (CC50/EC50): 6.67
  EC50: 15.2 µM
[16]
  EC50: 0.0077 µM
[3]
  Selectivity Index (SI) (CC50/EC50): 5.60
  EC50: 18.1 µM
[3]; West Nile virus, Vero
  EC50: 18.8 µM
[4]
  highest non-toxic (>90% viability of the treated cells) concentration: 6.25 µM
[5]; HBCA cells
  CC50 at 72 h: 26 µM
[5]; UKF-NB-4 cells
  CC50 at 72 h: 21.3 µM
[6]
  highest non-toxic (>90% viability of the treated cells) concentration: 12.5 µM
[7]; highest concentration of the drug
  virus titer reduction in comparison with mock-treated control cells: approximately 1 log10 pfu/mL
[8]
  effect on ZIKV titer in the culture: reduced ZIKV titer
[9]; 12.5 µM
  effect on ZIKV replication in the cell culture: completely suppressed ZIKV replication
[10]
  Selectivity Index (SI) (CC50/EC50): 6.48
  EC50: 15.7 µM
[11]
  Selectivity Index (SI) (CC50/EC50): 6.29
  EC50: 16.1 µM
[12]
  viability of the infected cells compared to uninfected controls (inhibition of ZIKV-mediated CPE): > 90%
[13]
  CC50 at 72 h: 102 µM
[14]
  Selectivity Index (SI) (CC50/EC50): 6.54
  EC50: 15.5 µM
[17]
  EC50: 0.0018 µM
[15]
  anti-ZIKV effect, drug applied 2 h post-infection: even stronger compared to 7-deaza-2′-C-methyladenosine

## C[C@@H]1CCO[C@H]2Cn3cc(C(=O)NCc4ccc(F)cc4F)c(=O)c(O)c3C(=O)N12 [dolutegravir]
[12]
  viability of the infected cells compared to uninfected controls (inhibition of ZIKV-mediated CPE): > 90%

## CCC[C@@]1(CCc2ccccc2)CC(O)=C([C@H](CC)c2cccc(NS(=O)(=O)c3ccc(C(F)(F)F)cn3)c2)C(=O)O1 [Tipranavir, tipranavir]
[18]
  EC90: 0.1 µM
[1]
  surface E antigen expression by all VBFs tested: dose-dependent inhibition
[2]
  Selectivity Index (SI) (CC50/EC50): 3.79
  EC50: 35.5 µM
[3]
  Selectivity Index (SI) (CC50/EC50): 4.12
[3]; West Nile virus, Vero
  EC50: 32.7 µM
[4]
  highest non-toxic (>90% viability of the treated cells) concentration: 50 µM
[5]; HBCA cells
  CC50 at 72 h: 34 µM
[5]; UKF-NB-4 cells
  CC50 at 72 h: 89.2 µM
[6]
  highest non-toxic (>90% viability of the treated cells) concentration: 12.5 µM
[7]; 50 µM
  antiviral effect against ZIKV (virus titer reduction): approx. 10^3 fold
[8]
  effect on ZIKV titer in the culture: reduced ZIKV titer
[9]; 12.5 µM
  reduction of ZIKV replication in the HBCA culture: approx. 10^3 fold
[10]
  Selectivity Index (SI) (CC50/EC50): 5.58
  EC50: 24.2 µM
[11]
  EC50: 29.9 µM
[12]
  viability of the infected cells compared to uninfected controls (inhibition of ZIKV-mediated CPE): > 90%
[13]
  CC50 at 72 h: > 100 µM
[14]
  Selectivity Index (SI) (CC50/EC50): 4.45
  EC50: 30.3 µM
[15]
  anti-ZIKV effect, drug applied 2 h post-infection: even stronger compared to 7-deaza-2′-C-methyladenosine

From paper PMC7232190, “FDA-Approved Drugs Efavirenz, Tipranavir, and Dasabuvir Inhibit Replication of Multiple Flaviviruses in Vero Cells” (Microorganisms, 2020)
